Data reported in the supplement of paper PMC4862054.

What was measured:
Conditions in all cases: incubation time: 72 h
MDA-MB-468 [1] = experiment: normalised viability (% of control), CellTiter-Blue; higher = more viable cells (about 100 = DMSO control)
Procedure: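 DSRT, CellTiter-Blue viability, 72 h incubation. Signal is normalised to DMSO and benzethonium chloride controls. Value is the normalised response at dose 3.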

BT-549 [2] = experiment: drug sensitivity score (DSS), CellTiter-Glo (DSS (AUC-based score)); higher = stronger drug effect (viability inhibition or cytotoxicity); extreme values may be limits of the assay
Procedure, shortened: (§1)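 Breast cancer cells were seeded into 384-well plates containing compound at 5 concentrations in 10-fold steps over a compound-specific 10,000-fold range and incubated 72 h. After CellTox Green and CellTiter-Glo readings, each plate was normalised to 0.1 % DMSO and a positive kill control. The drug sensitivity score rests on the area under the fitted dose-response curve.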

CAL-120 [3] = experiment: as above
Procedure, shortened: as §1

HCC1143 [4] = experiment: as above
Procedure, shortened: as §1

Hs578T = experiment: as above
Procedure, shortened: as §1

MDA-MB-231 = experiment: as above
Procedure, shortened: as §1

MDA-MB-436 [5] = experiment: as above
Procedure, shortened: as §1

MDA-MB-453 [6] = experiment: as above
Procedure, shortened: as §1

MDA-MB-468 [7] = experiment: as above
Procedure, shortened: as §1

SK-BR-3 = experiment: as above
Procedure, shortened: as §1

BT-474 = experiment: drug sensitivity score (DSS), CellTox Green (DSS (AUC-based score)); higher = stronger drug effect (viability inhibition or cytotoxicity); extreme values may be limits of the assay
Procedure, shortened: as §1

BT-549 [8] = experiment: as above
Procedure, shortened: as §1

CAL-120 [9] = experiment: as above
Procedure, shortened: as §1

CAL-148 = experiment: as above
Procedure, shortened: as §1

CAL-51 = experiment: as above
Procedure, shortened: as §1

CAL-85-1 = experiment: as above
Procedure, shortened: as §1

DU-4475 = experiment: as above
Procedure, shortened: as §1

HCC1143 [10] = experiment: as above
Procedure, shortened: as §1

HCC1599 = experiment: as above
Procedure, shortened: as §1

HDQ-P1 = experiment: as above
Procedure, shortened: as §1

MCF-10A = experiment: as above
Procedure, shortened: as §1

MDA-MB-436 [11] = experiment: as above
Procedure, shortened: as §1

MDA-MB-453 [12] = experiment: as above
Procedure, shortened: as §1

MDA-MB-468 [13] = experiment: as above
Procedure, shortened: as §1

MFM-223 = experiment: as above
Procedure, shortened: as §1

## Nc1nc(Cl)nc2c1ncn2[C@H]1C[C@H](O)[C@@H](CO)O1 [Cladribine]
MDA-MB-468 [1]; 10 nM
  normalised viability: 104%
BT-549 [2]
  drug sensitivity score: 6.43
CAL-120 [3]
  drug sensitivity score: 1.39
HCC1143 [4]
  drug sensitivity score: 0
Hs578T
  drug sensitivity score: 0
MDA-MB-231
  drug sensitivity score: 0
MDA-MB-436 [5]
  drug sensitivity score: 0
MDA-MB-453 [6]
  drug sensitivity score: 0
MDA-MB-468 [7]
  drug sensitivity score: 0.301
SK-BR-3
  drug sensitivity score: 0
BT-474
  drug sensitivity score: 0
BT-549 [8]
  drug sensitivity score: 0
CAL-120 [9]
  drug sensitivity score: 0
CAL-148
  drug sensitivity score: 0
CAL-51
  drug sensitivity score: 0
CAL-85-1
  drug sensitivity score: 0
DU-4475
  drug sensitivity score: 0
HCC1143 [10]
  drug sensitivity score: 1.86
HCC1599
  drug sensitivity score: 0
HDQ-P1
  drug sensitivity score: 0
MCF-10A
  drug sensitivity score: 0
MDA-MB-436 [11]
  drug sensitivity score: 0
MDA-MB-453 [12]
  drug sensitivity score: 0
MDA-MB-468 [13]
  drug sensitivity score: 14.3
MFM-223
  drug sensitivity score: 3.32

## C[C@]1(c2nc3c(C(N)=O)cccc3[nH]2)CCCN1 [Veliparib]
MDA-MB-468 [1]; 100 nM
  normalised viability: 97.6%
BT-549 [2]
  drug sensitivity score: 0
CAL-120 [3]
  drug sensitivity score: 0
HCC1143 [4]
  drug sensitivity score: 0
Hs578T
  drug sensitivity score: 0
MDA-MB-231
  drug sensitivity score: 0
MDA-MB-436 [5]
  drug sensitivity score: 0
MDA-MB-453 [6]
  drug sensitivity score: 0
MDA-MB-468 [7]
  drug sensitivity score: 0
SK-BR-3
  drug sensitivity score: 0
BT-474
  drug sensitivity score: 0
BT-549 [8]
  drug sensitivity score: 0
CAL-120 [9]
  drug sensitivity score: 0
CAL-148
  drug sensitivity score: 2.57
CAL-51
  drug sensitivity score: 0
CAL-85-1
  drug sensitivity score: 0.454
DU-4475
  drug sensitivity score: 0
HCC1143 [10]
  drug sensitivity score: 0
HCC1599
  drug sensitivity score: 0
HDQ-P1
  drug sensitivity score: 0
MCF-10A
  drug sensitivity score: 0
MDA-MB-436 [11]
  drug sensitivity score: 0
MDA-MB-453 [12]
  drug sensitivity score: 0
MDA-MB-468 [13]
  drug sensitivity score: 0
MFM-223
  drug sensitivity score: 0

## C=CC[C@@H]1/C=C(\C)C[C@H](C)C[C@H](OC)[C@H]2O[C@@](O)(C(=O)C(=O)N3CCCC[C@H]3C(=O)O[C@H](/C(C)=C/[C@@H]3CC[C@@H](O)[C@H](OC)C3)[C@H](C)[C@@H](O)CC1=O)[C@H](C)C[C@@H]2OC [Tacrolimus]
MDA-MB-468 [1]; 100 nM
  normalised viability: 119%
BT-549 [2]
  drug sensitivity score: 0
CAL-120 [3]
  drug sensitivity score: 0
HCC1143 [4]
  drug sensitivity score: 0
Hs578T
  drug sensitivity score: 0
MDA-MB-231
  drug sensitivity score: 0
MDA-MB-436 [5]
  drug sensitivity score: 0
MDA-MB-453 [6]
  drug sensitivity score: 0
MDA-MB-468 [7]
  drug sensitivity score: 0
SK-BR-3
  drug sensitivity score: 0
BT-474
  drug sensitivity score: 0
BT-549 [8]
  drug sensitivity score: 0
CAL-120 [9]
  drug sensitivity score: 0
CAL-148
  drug sensitivity score: 0
CAL-51
  drug sensitivity score: 0
CAL-85-1
  drug sensitivity score: 0
DU-4475
  drug sensitivity score: 0
HCC1143 [10]
  drug sensitivity score: 0
HCC1599
  drug sensitivity score: 0
HDQ-P1
  drug sensitivity score: 0
MCF-10A
  drug sensitivity score: 0.439
MDA-MB-436 [11]
  drug sensitivity score: 0
MDA-MB-453 [12]
  drug sensitivity score: 0
MDA-MB-468 [13]
  drug sensitivity score: 0
MFM-223
  drug sensitivity score: 0

## OC[C@H]1O[C@@H](n2cnc3c2N=CNC[C@H]3O)C[C@@H]1O [Pentostatin]
MDA-MB-468 [1]; 100 nM
  normalised viability: 107%
BT-549 [2]
  drug sensitivity score: 0
CAL-120 [3]
  drug sensitivity score: 0
HCC1143 [4]
  drug sensitivity score: 0
Hs578T
  drug sensitivity score: 0
MDA-MB-231
  drug sensitivity score: 0
MDA-MB-436 [5]
  drug sensitivity score: 0
MDA-MB-453 [6]
  drug sensitivity score: 0
MDA-MB-468 [7]
  drug sensitivity score: 0
SK-BR-3
  drug sensitivity score: 0
BT-474
  drug sensitivity score: 0
BT-549 [8]
  drug sensitivity score: 0
CAL-120 [9]
  drug sensitivity score: 0
CAL-148
  drug sensitivity score: 0
CAL-51
  drug sensitivity score: 0
CAL-85-1
  drug sensitivity score: 0
DU-4475
  drug sensitivity score: 0
HCC1143 [10]
  drug sensitivity score: 0
HCC1599
  drug sensitivity score: 0
HDQ-P1
  drug sensitivity score: 0
MCF-10A
  drug sensitivity score: 0
MDA-MB-436 [11]
  drug sensitivity score: 0
MDA-MB-453 [12]
  drug sensitivity score: 0
MDA-MB-468 [13]
  drug sensitivity score: 0
MFM-223
  drug sensitivity score: 0

## CC[C@]1(O)C[C@@H]2CN(CCc3c([nH]c4ccccc34)[C@@](C(=O)OC)(c3cc4c(cc3OC)N(C)[C@H]3[C@@](O)(C(=O)OC)[C@H](OC(C)=O)[C@]5(CC)C=CCN6CC[C@]43[C@@H]65)C2)C1 [Vinblastine]
MDA-MB-468 [1]; 10 nM
  normalised viability: 39.3%
BT-549 [2]
  drug sensitivity score: 21.3
CAL-120 [3]
  drug sensitivity score: 14.2
HCC1143 [4]
  drug sensitivity score: 15.8
Hs578T
  drug sensitivity score: 20.3
MDA-MB-231
  drug sensitivity score: 16.2
MDA-MB-436 [5]
  drug sensitivity score: 22.8
MDA-MB-453 [6]
  drug sensitivity score: 13.1
MDA-MB-468 [7]
  drug sensitivity score: 21.1
SK-BR-3
  drug sensitivity score: 27.5
BT-474
  drug sensitivity score: 8.39
BT-549 [8]
  drug sensitivity score: 10.2
CAL-120 [9]
  drug sensitivity score: 3.49
CAL-148
  drug sensitivity score: 0
CAL-51
  drug sensitivity score: 22.3
CAL-85-1
  drug sensitivity score: 6.07
DU-4475
  drug sensitivity score: 0
HCC1143 [10]
  drug sensitivity score: 9.2
HCC1599
  drug sensitivity score: 2.86
HDQ-P1
  drug sensitivity score: 0
MCF-10A
  drug sensitivity score: 12.5
MDA-MB-436 [11]
  drug sensitivity score: 0
MDA-MB-453 [12]
  drug sensitivity score: 0
MDA-MB-468 [13]
  drug sensitivity score: 12.8
MFM-223
  drug sensitivity score: 12.2

## Cc1ccc(F)c(NC(=O)Nc2ccc(-c3cccc4[nH]nc(N)c34)cc2)c1 [Linifanib]
MDA-MB-468 [1]; 10 nM
  normalised viability: 123%
BT-549 [2]
  drug sensitivity score: 0
CAL-120 [3]
  drug sensitivity score: 0
HCC1143 [4]
  drug sensitivity score: 0
Hs578T
  drug sensitivity score: 0
MDA-MB-231
  drug sensitivity score: 0
MDA-MB-436 [5]
  drug sensitivity score: 0
MDA-MB-453 [6]
  drug sensitivity score: 0
MDA-MB-468 [7]
  drug sensitivity score: 0
SK-BR-3
  drug sensitivity score: 0
BT-474
  drug sensitivity score: 0
BT-549 [8]
  drug sensitivity score: 0
CAL-120 [9]
  drug sensitivity score: 0
CAL-148
  drug sensitivity score: 0
CAL-51
  drug sensitivity score: 0
CAL-85-1
  drug sensitivity score: 0
DU-4475
  drug sensitivity score: 0
HCC1143 [10]
  drug sensitivity score: 0
HCC1599
  drug sensitivity score: 0
HDQ-P1
  drug sensitivity score: 0
MCF-10A
  drug sensitivity score: 0
MDA-MB-436 [11]
  drug sensitivity score: 0
MDA-MB-453 [12]
  drug sensitivity score: 0
MDA-MB-468 [13]
  drug sensitivity score: 0
MFM-223
  drug sensitivity score: 0
